From PubChem BioAssay AID449759 (The Scripps Research Institute Molecular Screening Center, 2010)
Calls of active or inactive are those of the source. No rule for the calls is given here.

Tested on: NIH 3T3 cells, IRF-1 mRNA qPCR, IFNg-stimulated
Test: enhancement of STAT1 target gene IRF-1 transcripts – SYBR qPCR, NIH 3T3 cells, powder samples, counter-screen for STAT1 activator project, late-stage follow-up (AID 449759)
Settings: at 10 µM; hits give high values

With `COc1ccc(-c2cc(C)nc3c(-c4ccccc4)cnn23)cc1` the fold change was 0.81 (inactive).
With `CCOC(=O)/C(C#N)=C/c1cc(C)n(-c2ccccc2)c1C` the fold change was 0.7 (inactive).
With `CCN(CC)c1ccc2cc(C(=O)Nc3ccccn3)c(=O)oc2c1` the fold change was 0.85 (inactive).
With `O=C(/C=C/Nc1ccccc1F)c1ccc(Br)cc1` the fold change was 0.77 (inactive).
With `N#C/C(=C\c1ccc(N2CCOCC2)o1)c1nc2ccccc2[nH]1` the fold change was 0.5 (inactive).
`COc1ccc2[nH]c3c(c2c1)CCn1c-3nc2ccccc2c1=O` was tested, and the fold change was 0.89 (inactive).
For `Cc1ccc(C(=O)Nc2nc3ccccc3s2)s1`, the fold change was 0.93 (inactive).
`COc1ccc(-c2csc(N3C(=O)CNC3=S)n2)cc1` was tested, and the fold change was 0.34 (inactive).
